Numbering of substitutions follows the chain as printed.
Tests used:
LNCap cells = test: Cell viability assay (CellTiterGlo); format: cell-based; details: Homo sapiens, 144 h, read-out: LNCap (IC50, nM)
[1] = biological target: T1, ligand binding domain of the glucocorticoid receptor (HEK293 cells stably expressing) (Homo sapiens, UniProt P04150); test: GR antagonism assay (luciferase reporter)
T1 sequence (P04150 524-758 limits assumed): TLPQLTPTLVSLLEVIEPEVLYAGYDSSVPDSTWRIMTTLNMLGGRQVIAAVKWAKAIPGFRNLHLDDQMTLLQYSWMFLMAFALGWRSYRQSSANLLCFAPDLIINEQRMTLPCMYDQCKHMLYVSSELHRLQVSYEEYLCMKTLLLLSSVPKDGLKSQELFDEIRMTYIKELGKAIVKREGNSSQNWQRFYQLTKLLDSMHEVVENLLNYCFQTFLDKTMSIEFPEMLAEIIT

[2] = biological target: T2, Progesterone Receptor (PR)-LBD and coactivator peptide (Homo sapiens, UniProt P06401); test: PR coactivator antagonist assay; details: 2.5 nM PR-LBD, 10 nM progesterone-induced fluorescence response
T2 sequence (P06401 679-913 limits assumed): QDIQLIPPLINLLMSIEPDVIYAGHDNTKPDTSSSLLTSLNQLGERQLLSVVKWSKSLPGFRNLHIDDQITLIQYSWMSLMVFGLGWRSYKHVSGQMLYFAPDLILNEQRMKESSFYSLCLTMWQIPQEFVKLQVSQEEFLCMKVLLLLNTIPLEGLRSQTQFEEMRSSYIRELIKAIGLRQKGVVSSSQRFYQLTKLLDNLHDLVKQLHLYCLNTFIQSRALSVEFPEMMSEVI

[3] = biological target: T3, Progesterone PR-B receptors from human breast carcinoma T47D cells (Homo sapiens, UniProt P06401); test: PR binding assay ([3H] Progesterone displacement)
T3 sequence (P06401 1-933): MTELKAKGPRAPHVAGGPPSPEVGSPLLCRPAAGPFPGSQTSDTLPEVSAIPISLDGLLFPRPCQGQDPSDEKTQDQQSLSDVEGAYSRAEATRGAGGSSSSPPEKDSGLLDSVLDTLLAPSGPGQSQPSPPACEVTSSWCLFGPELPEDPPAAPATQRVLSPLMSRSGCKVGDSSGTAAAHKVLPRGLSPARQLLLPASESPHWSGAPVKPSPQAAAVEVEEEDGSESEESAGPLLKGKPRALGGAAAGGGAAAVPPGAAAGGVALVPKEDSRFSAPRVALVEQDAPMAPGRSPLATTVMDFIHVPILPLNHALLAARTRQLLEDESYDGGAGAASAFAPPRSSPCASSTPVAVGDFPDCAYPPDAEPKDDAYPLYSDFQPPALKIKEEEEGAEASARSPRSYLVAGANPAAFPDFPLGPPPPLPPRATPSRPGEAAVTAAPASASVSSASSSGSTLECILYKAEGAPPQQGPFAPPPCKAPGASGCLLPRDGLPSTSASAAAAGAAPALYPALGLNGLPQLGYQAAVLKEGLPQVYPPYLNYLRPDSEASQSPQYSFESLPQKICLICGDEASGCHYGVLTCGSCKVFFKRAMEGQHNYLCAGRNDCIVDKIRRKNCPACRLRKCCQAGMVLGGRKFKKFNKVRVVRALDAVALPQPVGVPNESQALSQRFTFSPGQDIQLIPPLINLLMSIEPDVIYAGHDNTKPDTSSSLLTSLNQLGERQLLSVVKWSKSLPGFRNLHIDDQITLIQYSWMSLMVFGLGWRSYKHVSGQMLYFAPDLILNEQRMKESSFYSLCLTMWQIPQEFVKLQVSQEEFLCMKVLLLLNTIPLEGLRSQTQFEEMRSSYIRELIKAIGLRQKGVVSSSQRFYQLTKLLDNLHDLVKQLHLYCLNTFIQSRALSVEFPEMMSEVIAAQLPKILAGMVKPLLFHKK

[4] = biological target: T4, GR (cytosol from IM-9 cells) (Homo sapiens, UniProt P04150); test: GR binding assay (3H-Dexamethasone displacement)
T4 sequence (P04150 1-777): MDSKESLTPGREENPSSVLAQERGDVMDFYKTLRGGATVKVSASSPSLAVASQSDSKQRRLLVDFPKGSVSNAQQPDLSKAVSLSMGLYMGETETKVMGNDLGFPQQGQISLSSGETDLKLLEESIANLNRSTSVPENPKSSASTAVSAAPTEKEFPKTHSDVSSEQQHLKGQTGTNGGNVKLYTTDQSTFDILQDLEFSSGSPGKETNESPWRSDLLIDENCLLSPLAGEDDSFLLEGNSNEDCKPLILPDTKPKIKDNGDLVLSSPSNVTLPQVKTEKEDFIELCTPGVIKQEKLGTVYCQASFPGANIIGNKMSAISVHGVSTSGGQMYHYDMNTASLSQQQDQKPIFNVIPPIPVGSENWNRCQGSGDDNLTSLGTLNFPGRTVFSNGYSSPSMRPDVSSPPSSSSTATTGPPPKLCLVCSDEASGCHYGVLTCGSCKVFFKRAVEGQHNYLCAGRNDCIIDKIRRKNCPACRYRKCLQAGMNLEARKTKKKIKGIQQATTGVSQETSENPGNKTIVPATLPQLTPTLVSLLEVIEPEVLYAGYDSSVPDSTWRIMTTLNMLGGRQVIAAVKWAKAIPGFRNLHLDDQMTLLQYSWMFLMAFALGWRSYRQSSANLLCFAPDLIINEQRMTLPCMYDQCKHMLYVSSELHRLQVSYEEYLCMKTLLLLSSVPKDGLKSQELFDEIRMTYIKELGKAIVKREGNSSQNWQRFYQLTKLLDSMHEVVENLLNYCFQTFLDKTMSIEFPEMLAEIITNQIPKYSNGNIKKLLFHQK

IEC6 cells = test: Cell viability assay (CellTiterGlo); details: Rattus norvegicus, IEC-6, 144 h, read-out: IEC-6 (IC50, nM)
T47D cells = test: Cell viability assay (CellTiterGlo); format: cell-based; details: Homo sapiens, 144 h, read-out: T47D (IC50, nM)
[5] = biological target: T5, AR (cytosol from LnCaP cells) (Homo sapiens, UniProt P10275, T878A); test: AR binding assay (3H-R1881 displacement)
T5 sequence (P10275 1-920 T878A): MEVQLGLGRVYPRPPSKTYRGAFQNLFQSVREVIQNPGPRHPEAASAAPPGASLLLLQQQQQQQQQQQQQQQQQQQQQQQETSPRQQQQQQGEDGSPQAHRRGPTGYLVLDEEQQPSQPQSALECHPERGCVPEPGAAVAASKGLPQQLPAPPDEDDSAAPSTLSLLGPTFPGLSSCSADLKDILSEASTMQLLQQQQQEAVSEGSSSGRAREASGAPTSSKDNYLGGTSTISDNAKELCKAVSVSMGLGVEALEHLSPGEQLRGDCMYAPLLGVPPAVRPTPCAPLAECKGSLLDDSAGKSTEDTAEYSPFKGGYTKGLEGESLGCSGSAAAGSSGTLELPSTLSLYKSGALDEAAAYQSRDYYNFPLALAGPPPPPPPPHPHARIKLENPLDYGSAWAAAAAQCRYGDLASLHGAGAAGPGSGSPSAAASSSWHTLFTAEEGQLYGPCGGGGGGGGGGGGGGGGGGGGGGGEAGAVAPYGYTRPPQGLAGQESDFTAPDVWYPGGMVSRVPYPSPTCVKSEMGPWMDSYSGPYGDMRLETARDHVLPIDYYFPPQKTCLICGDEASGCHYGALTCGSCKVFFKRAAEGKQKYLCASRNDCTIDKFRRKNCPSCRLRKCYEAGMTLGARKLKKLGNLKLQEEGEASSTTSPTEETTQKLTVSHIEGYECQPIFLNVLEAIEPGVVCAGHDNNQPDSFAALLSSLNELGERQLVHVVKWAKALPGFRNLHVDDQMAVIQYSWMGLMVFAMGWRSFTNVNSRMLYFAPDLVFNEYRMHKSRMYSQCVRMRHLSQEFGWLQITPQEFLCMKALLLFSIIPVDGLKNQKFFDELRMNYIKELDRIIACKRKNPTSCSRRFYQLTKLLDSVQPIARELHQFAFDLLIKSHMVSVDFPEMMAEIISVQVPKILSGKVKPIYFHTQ
Description: The plate was then centrifuged at 3000 rpm for 30 minutes at 4° C.

[6] = biological target: T6, full-length androgen receptor (HEK293 cells stably expressing) (Homo sapiens, UniProt P10275); test: AR antagonism assay (luciferase reporter)
T6 sequence (P10275 1-920): T5 sequence (P10275 1-920 T878A) with A878T
Description: AR antagonism assay: To evaluate AR antagonist activity, test compound was added to the assay plate (top dose 10 μM, 3 fold serial dilution, 10 point dose response). HEK293 cells stably expressing the full-length androgen receptor were seeded at a density of 20000 cells/well in the assay plate. The assay plate was then incubated at room temperature for 10 minutes and at 37° C. 5% CO2 for 20 minutes. Testosterone was added to the assay plate at 1 nM final concentration and the assay plate incubated at 37° C., 5% CO2 for 20 h. […] Steady-glo was added to the assay plate and mixed at room temperature for 20 minutes on an orbital shaker, before reading out on the En Vision plate reader.

22Rv1 cells = test: Cell viability assay (CellTiterGlo); details: Homo sapiens, 22Rv1, 144 h, read-out: 22RV1 (IC50, nM)

**Q.** Which results are given for `CC[C@@]1(O)C(=O)OCc2c1cc1n(c2=O)Cc2cc3c(CN(C)C)c(OC(=O)N4CCN(CCCCCCCCN(C)c5ccc([C@H]6C[C@@]7(C)[C@@H](CC[C@]7(OC(C)=O)C(C)=O)[C@@H]7CCC8=CC(=O)CCC8=C76)cc5)CC4)ccc3nc2-1` [Compound 7, (S)-10-((Dimethylamino)methyl)-4-ethyl-4-hydroxy-3,14-dioxo-3,4,12,14-tetrahydro-1H-pyrano[3′,4′:6,7]indolizino[1,2-b]quinolin-9-yl 4-(8-((4-((8S,11R,13S,14S,17R)-17-acetoxy-17-acetyl-13-methyl-3-oxo-2,3,6,7,8,11,12,13,14,15,16,17-dodecahydro-1H-cyclopenta[a]phenanthren-11-yl)phenyl)(methyl)amino)octyl)piperazine-1-carboxylate]?
**A.** IC50 (LNCap cells): 101 to 1000 nM; IC50 [1]: 10 to 100 nM; PR antagonism [2]: a (IC50 =< 10 nM); IC50 [3]: < 10 nM; IC50 [4]: < 10 nM; IC50 (IEC6 cells): > 1000 nM; IC50 (T47D cells): 101 to 1000 nM; IC50 [5]: 10 to 100 nM

**Q.** For `CC[C@@]1(O)C(=O)OCc2c1cc1n(c2=O)Cc2cc3c(CN(C)C)c(OC(=O)N4CCN(C(=O)[C@H](CCCNC(N)=O)NC(=O)[C@@H](NCCCCCCN(C)c5ccc([C@H]6C[C@@]7(C)[C@@H](CC[C@]7(OC(C)=O)C(C)=O)[C@@H]7CCC8=CC(=O)CCC8=C76)cc5)C(C)C)CC4)ccc3nc2-1` [Compound 39, (S)-10-((dimethylamino)methyl)-4-ethyl-4-hydroxy-3,14-dioxo-3,4,12,14-tetrahydro-1H-pyrano[3′,4′:6,7]indolizino[1,2-b]quinolin-9-yl 4-((S)-2-((S)-2-((6-((4-((8S,11R,13S,14S,17R)-17-acetoxy-17-acetyl-13-methyl-3-oxo-2,3,6,7,8,11,12,13,14,15,16,17-dodecahydro-1H-cyclopenta[a]phenanthren-11-yl)phenyl)(methyl)amino)hexyl)amino)-3-methylbutanamido)-5-ureidopentanoyl)piperazine-1-carboxylate], which IC50 [1] is on record?
**A.** 101 to 1000 nM

**Q.** What about the IC50 [6] of the same compound?
**A.** > 1000 nM

**Q.** And the IC50 [3]?
**A.** < 10 nM

**Q.** What about the IC50 (22Rv1 cells) of the same compound?
**A.** 101 to 1000 nM

**Q.** What about the IC50 (IEC6 cells) of the same compound?
**A.** > 1000 nM

**Q.** What about the IC50 (T47D cells) of the same compound?
**A.** 101 to 1000 nM

**Q.** What about the IC50 [5] of the same compound?
**A.** 10 to 100 nM
